The results in this text go back to US20240226106A1, “INHIBITORS OF PLASMA KALLIKREIN” (SHIRE HUMAN GENETIC THERAPIES, INC., priority 2021, published 2024).

For assay [1], the target named is T1, plasma kallikrein (Homo sapiens, UniProt P03952).
T1 construct: from tissue; host or cells: sodium citrate collected human plasma
Put plainly: Neat human plasma assay (fluorogenic peptide), contact pathway-activated plasma. Format: biochemical. To be noted: citrated human plasma, 10 nM human FXIIa activation, 100 μM PFR-AMC, room temperature; read-out: Human Plasma Assay: IC90. How it is done:
To analyze inhibition of plasma kallikrein in an ex vivo setting, the potency of compounds was measure in contact pathway-activated plasma assays. In a fluorogenic peptide substrate assay, test compounds dissolved in DMSO were added to sodium citrate collected human or rat plasma in a 96-well microplate. Alternatively, citrated plasma was collected from rats administered the compounds orally or by IV. 10 nM of human FXIIa (Enzyme Research Laboratories) diluted in PKa buffer (20 mM Tris-HCl, pH 7.5, 150 mM NaCl, 1 mM EDTA, 0.100 PEG-8000, and 0.1% Triton X-100) was added to the plasma, followed by the 100 μM of the profluorescent, synthetic plasma kallikrein substrate PFR-AMC (also diluted in PKa buffer). Final plasma concentration in the reaction was […]. Fluorescence was immediately monitored by excitation/emission wavelengths of 360 nm/480 nm respectively over a period of 5 minutes in a microplate reader. The resulting linear increase in fluorescence emission (reflecting PKa proteolysis of PFR-AMC substrate) was fit to extract a proteolytic rate (fluorescent units over time), and this rate was subsequently plotted against compound inhibitor concentration. Resulting plots were fit to a standard 4-parameter IC50/C90 equation to determine min/max values, IC50/90, and slope. All experimental steps were performed at room temperature.

The target of assay [2] is human activated kallikrein enzyme (Homo sapiens, UniProt P03952). Nature of the assay: Inhibition of human activated plasma kallikrein, fluorogenic peptide substrate (PFR-AMC), 500 pM enzyme format. Format: biochemical. The following applies: 500 pM activated kallikrein, 30 min preincubation, 10 min reaction, room temperature, read-out: Primary Dose Response Assay: Average EC50. How it is done: Compounds were evaluated for inhibition of the human activated kallikrein enzyme in two formats of an assay employing a fluorogenic peptide substrate. In one assay format, the concentrations of reagents were as follows: 20 mM Tris pH 7.5, 1 mM EDTA, 150 mM sodium chloride, 0.1% PEG-400, 0.1% Triton X-100, 500 pM activated kallikrein enzyme, […] Pro-Phe-Arg-7-amido-4-methylcoumarin (PFR-AMC) substrate. Prior to reaction initiation with substrate, enzyme and inhibitors were preincubated for 30 min at room temperature. After initiation with substrate, reactions were incubated for 10 min at room temperature and fluorescence emission at 460 nm from 380 nm excitation measured with a microplate reader. In another assay format, the concentrations of reagents were as follows: 20 mM Tris pH 7.5, 1 mM EDTA, 150 mM sodium chloride, 0.1% PEG-400, 0.1% Triton X-100, 5 pM activated kallikrein enzyme, 300 uM PFR-AMC substrate. Prior to reaction initiation with substrate, enzyme and inhibitors were preincubated for 30 min at room temperature. After initiation with substrate, reactions were incubated for 18 hr at room temperature and fluorescence emission at 460 nm from 380 nm excitation measured with a microplate reader.
Sequence of human activated kallikrein enzyme (P03952 391-638 limits assumed): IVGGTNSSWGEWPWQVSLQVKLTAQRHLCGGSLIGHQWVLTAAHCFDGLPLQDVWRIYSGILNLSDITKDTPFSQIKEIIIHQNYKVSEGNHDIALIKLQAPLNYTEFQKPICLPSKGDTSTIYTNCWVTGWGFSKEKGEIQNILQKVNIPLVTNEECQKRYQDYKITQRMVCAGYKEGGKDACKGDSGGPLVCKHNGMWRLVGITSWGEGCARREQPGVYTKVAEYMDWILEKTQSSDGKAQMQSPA
Sequence of human activated kallikrein enzyme (P03952 20-390 partner limits assumed): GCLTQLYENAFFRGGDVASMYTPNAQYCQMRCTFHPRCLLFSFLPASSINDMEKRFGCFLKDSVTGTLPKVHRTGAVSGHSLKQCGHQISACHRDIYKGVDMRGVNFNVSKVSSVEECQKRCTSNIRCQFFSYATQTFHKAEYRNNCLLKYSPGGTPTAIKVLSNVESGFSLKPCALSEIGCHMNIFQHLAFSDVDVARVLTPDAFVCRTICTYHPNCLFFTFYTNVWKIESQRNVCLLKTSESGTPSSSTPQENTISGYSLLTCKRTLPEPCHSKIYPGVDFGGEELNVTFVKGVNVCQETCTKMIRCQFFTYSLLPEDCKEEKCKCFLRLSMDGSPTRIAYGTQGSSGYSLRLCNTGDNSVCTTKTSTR

T1 sequence (P03952 391-638 limits assumed): as the sequence (P03952 391-638 limits assumed) above
T1 sequence (P03952 20-390 partner limits assumed): as the sequence (P03952 20-390 partner limits assumed) above

Broadly, the IC90 is the concentration at which the effect reaches the 90% level. For orientation: EC50 means the concentration needed to bring the measured effect to its halfway point. With `N#Cc1ccc(Cl)cc1[C@H]1C[C@@H]1C(=O)Nc1cc(NCc2cn3cc(C4CC4)cnc3n2)ccn1` (racemic) [Example 22, rac-(1S*,2S*)-2-(5-chloro-2-cyanophenyl)-N-(4-(((6-cyclopropylimidazo[1,2-a]pyrimidin-2-yl)methyl)amino)pyridin-2-yl)cyclopropane-1-carboxamide], the IC90 in assay [1] was in the range of 5000 to 65000 nM. Further, the EC50 in assay [2] was less than 2.5 nM.

As to `O=C(Nc1cc(NCc2nc3ncc(C4CC4)cn3n2)ccn1)[C@@H]1C[C@]12CCc1ccc(Cl)cc12` (racemic) [Example 41, rac-(1S*,2S*)-6′-chloro-N-(4-(((6-cyclopropyl-[1,2,4]triazolo[1,5-a]pyrimidin-2-yl)methyl)amino)pyridin-2-yl)-2′,3′-dihydrospiro[cyclopropane-1,1′-indene]-2-carboxamide], the IC90 in assay [1] is 5000 to 65000 nM. Further, the EC50 in assay [2] was less than 2.5 nM.

Consider `N#Cc1ccc(Cl)cc1[C@H]1C[C@@H]1C(=O)Nc1cc(NCc2nc3ncc(C4CC4)cn3n2)ccn1` (racemic) [Example 42, rac-(1S*,2S*)-2-(5-chloro-2-cyanophenyl)-N-(4-(((6-cyclopropyl-[1,2,4]triazolo[1,5-a]pyrimidin-2-yl)methyl)amino)pyridin-2-yl)cyclopropane-1-carboxamide], for which the IC90 in assay [1] was 500 to 5000 nM. In addition, the EC50 in assay [2] is less than 2.5 nM.

Regarding `O=C(Nc1cc(NCc2cc3cc(C4CC4)cc(N4CCOC4=O)n3n2)ncn1)[C@H]1C[C@@H]1c1cc(Cl)ccn1` (racemic) [Example 56, rac-(1S*,2S*)-2-(4-chloropyridin-2-yl)-N-(6-(((5-cyclopropyl-7-(2-oxooxazolidin-3-yl)pyrazolo[1,5-a]pyridin-2-yl)methyl)amino)pyrimidin-4-yl)cyclopropane-1-carboxamide], the IC90 in assay [1] lay within 5000 to 65000 nM. In assay [2], the EC50 was less than 2.5 nM.

On to `CN1C(=O)CN(c2cc(C3CC3)cc3cc(CNc4cc(NC(=O)[C@H]5C[C@@H]5c5cc(Cl)ccn5)ncn4)nn23)C1=O` (racemic) [Example 57, rac-(1S*,2S*)-2-(4-chloropyridin-2-yl)-N-(6-(((5-cyclopropyl-7-(3-methyl-2,4-dioxoimidazolidin-1-yl)pyrazolo[1,5-a]pyridin-2-yl)methyl)amino)pyrimidin-4-yl)cyclopropane-1-carboxamide], for which, in assay [1], the IC90 lay in the range of 500 to 5000 nM. Besides, the EC50 in assay [2] was less than 2.5 nM.

Consider `Cc1ccnc([C@H]2C[C@@H]2C(=O)Nc2nccc(NCc3cn4cc(C5CC5)cnc4n3)n2)n1` (racemic) [Example 77, rac-(1S*,2S*)—N-(4-(((6-cyclopropylimidazo[1,2-a]pyrimidin-2yl)methyl)amino)pyrimidin-2-yl)-2-(4-methylpyrimidin-2-yl)cyclopropane-1-carboxamide], for which the IC90 in assay [1] was 500 to 5000 nM. For the same compound, in assay [2], the EC50 is less than 2.5 nM.

For `Cc1ccnc([C@H]2C[C@@H]2C(=O)Nc2cc(NCc3cn4cc(C5CC5)nc(N5CC(=O)N(C)C5=O)c4n3)ncn2)n1` (racemic) [Example 80, rac-(1S*,2S*)—N-(6-(((6-cyclopropyl-8-(3-methyl-2,4-dioxoimidazolidin-1-yl)imidazo[1,2-a]pyrazin-2-yl)methyl)amino)pyrimidin-4-yl)-2-(4-methylpyrimidin-2-yl)cyclopropane-1-carboxamide], the IC90 in assay [1] is less than 500 nM. The EC50 in assay [2] is less than 2.5 nM.

In the case of `Cc1ccnc([C@H]2C[C@@H]2C(=O)Nc2ncc(F)c(NCc3cn4cc(C5CC5)nc(N5CC(=O)N(C)C5=O)c4n3)n2)n1` (racemic) [Example 84, rac-(1S*,2S*)—N-(4-(((6-cyclopropyl-8-(3-methyl-2,4-dioxoimidazolidin-1-yl)imidazo[1,2-a]pyrazin-2-yl)methyl)amino)-5-fluoropyrimidin-2-yl)-2-(4-methylpyrimidin-2-yl) cyclopropane-1-carboxamide], the IC90 in assay [1] is less than 500 nM. Moreover, the EC50 in assay [2] is less than 2.5 nM.

Take `Cc1ccnc([C@H]2C[C@@H]2C(=O)Nc2cc(N3C[C@@H](O)C[C@@H]3c3ccc(N4CC5CC5C4)nc3)ncn2)n1` (relative stereo) [Example 71, rac-(1S*,2S*)—N-(6-((2R^•,4S)-2-(6-(3-azabicyclo[3.1.0]hexan-3-yl)pyridin-3-yl)-4-hydroxypyrrolidin-1-yl)pyrimidin-4-yl)-2-(4-methylpyrimidin-2-yl)cyclopropane-1-carboxamide]: in assay [1], the IC90 was in the range of 500 to 5000 nM. Also, in assay [2], the EC50 was 2.5 to 25 nM.

On to `Cc1ccnc([C@H]2C[C@@H]2C(=O)Nc2cc(N3C[C@@H](O)C[C@@H]3c3cn4cc(C5CC5)cnc4n3)ncn2)n1` (relative stereo) [Example 72, rac-(1S*,2S*)—N-(6-((2R,4S)-2-(6-cyclopropylimidazo[1,2-a]pyrimidin-2-yl)-4-hydroxypyrrolidin-1-yl)pyrimidin-4-yl)-2-(4-methylpyrimidin-2-yl)cyclopropane-1-carboxamide], for which the IC90 in assay [1] lay in the range of 500 to 5000 nM. In assay [2], the EC50 was less than 2.5 nM.

Turning to `Cc1ccnc([C@H]2C[C@@H]2C(=O)Nc2cc(N3C[C@@H](O)C[C@@H]3c3cn4cc(C5CC5)cnc4n3)ncn2)c1` (single isomer, unassigned) [Example 75, (1S*,2S*)—N-(6-((2R,4S)-2-(6-cyclopropylimidazo[1,2-a]pyrimidin-2-yl)-4-hydroxypyrrolidin-1-yl)pyrimidin-4-yl)-2-(4-methylpyridin-2-yl)cyclopropane-1-carboxamide], the IC90 in assay [1] was 500 to 5000 nM. Besides, in assay [2], the EC50 was in the range of 2.5 to 25 nM.

As for `Cc1ccnc([C@H]2C[C@@H]2C(=O)Nc2nncc(N[C@H](C)c3cc4cc(C5CC5)cc(N5CC(=O)N(C)C5=O)n4n3)n2)n1` (single isomer, unassigned) [Example 102], in assay [1], the IC90 was less than 500 nM. Also, the EC50 in assay [2] was less than 2.5 nM.

Consider `O=C(Nc1cc(NCc2cc3cc(C4CC4)cnc3s2)ccn1)[C@H]1C[C@@H]1c1cccc(Cl)c1` [Example 23, (1S,2S)-2-(3-chlorophenyl)-N-(4-(((5-cyclopropylthieno[2,3-b]pyridin-2-yl)methyl)amino)pyridin-2-yl)cyclopropane-1-carboxamide], for which the IC90 in assay [1] is 5000 to 65000 nM. In addition, the EC50 in assay [2] is less than 2.5 nM.

Take `O=C(Nc1cc(NCc2nc3ccc(C4CC4)cn3n2)ccn1)[C@H]1C[C@@H]1c1cccc(Cl)c1` [Example 25, (1S,2S)-2-(3-chlorophenyl)-N-(4-(((6-cyclopropyl-[1,2,4]triazolo[1,5-a]pyridin-2-yl)methyl)amino)pyridin-2-yl)cyclopropane-1-carboxamide]: the IC90 in assay [1] was 5000 to 65000 nM. Besides, in assay [2], the EC50 is less than 2.5 nM.

For `CN(C(=O)[C@H]1C[C@H](O)CN1c1cc(NC(=O)[C@H]2C[C@@H]2c2cccc(Cl)c2)ncn1)c1ccc(C2CC2)cc1` [Example 65, (2R,4S)-1-(6-((1S,2S)-2-(3-chlorophenyl)cyclopropane-1-carboxamido)pyrimidin-4-yl)-N-(4-cyclopropylphenyl)-4-hydroxy-N-methylpyrrolidine-2-carboxamide], the EC50 in assay [2] is more than 500 nM.

For `O=C(Nc1cc(N2C[C@@H](O)CC2c2ccc(N3CC4CC4C3)nc2)ncn1)[C@H]1C[C@@H]1c1cccc(Cl)c1` (stereo partly drawn) [Example 67, (S,2S)—N-(6-((4S)-2-(6-(3-azabicyclo[3.1.0]hexan-3-yl)pyridin-3-yl)-4-hydroxypyrrolidin-1-yl)pyrimidin-4-yl)-2-(3-chlorophenyl)cyclopropane-1-carboxamide], in assay [2], the EC50 was 25 to 500 nM.

Turning to `O=C1CN(c2cc(C3CC3)cn3nc(CNc4cc(NC(=O)[C@H]5C[C@@H]5c5cc(Cl)ccn5)ncn4)nc23)C(=O)N1` [Example 68, (1S,2S)-2-(4-chloropyridin-2-yl)-N-(6-(((6-cyclopropyl-8-(2,4-dioxoimidazolidin-1-yl)-[1,2,4]triazolo[1,5-a]pyridin-2-yl)methyl)amino)pyrimidin-4-yl)cyclopropane-1-carboxamide], in assay [2], the EC50 is less than 2.5 nM.

On to `Cc1ccnc([C@H]2C[C@@H]2C(=O)Nc2cc(NCc3cc(F)c4ncc(Cl)cc4c3)nc(C)n2)n1` [Example 91, (1S,2S)—N-(6-(((3-chloro-8-fluoroquinolin-6-yl)methyl)amino)-2-methylpyrimidin-4-yl)-2-(4-methylpyrimidin-2-yl)cyclopropane-1-carboxamide], for which the EC50 in assay [2] is 2.5 to 25 nM.

Take `Cc1ccnc([C@H]2C[C@@H]2C(=O)Nc2cc(OCc3cc(F)c4ncc(Cl)cc4c3)cnn2)n1` [Example 92, (1S,2S)—N-(5-((3-chloro-8-fluoroquinolin-6-yl)methoxy)pyridazin-3-yl)-2-(4-methylpyrimidin-2-yl)cyclopropane-1-carboxamide]: the EC50 in assay [2] lay in the range of 2.5 to 25 nM.
